Measurements taken from US9580390B2, “Indazole compounds as kinase inhibitors and method of treating cancer with same” (University Health Network, priority 2011, dated 2017).

Key:
[1] = target: T1, human TTK (Homo sapiens, UniProt P33981); assay: TTK inhibition assay (indirect ELISA); format: biochemical; settings: read-out: TTK IC50 Range
T1 construct: amino terminal GST fusion of full length human TTK; purchased Invitrogen
T1 sequence (P33981 1-857): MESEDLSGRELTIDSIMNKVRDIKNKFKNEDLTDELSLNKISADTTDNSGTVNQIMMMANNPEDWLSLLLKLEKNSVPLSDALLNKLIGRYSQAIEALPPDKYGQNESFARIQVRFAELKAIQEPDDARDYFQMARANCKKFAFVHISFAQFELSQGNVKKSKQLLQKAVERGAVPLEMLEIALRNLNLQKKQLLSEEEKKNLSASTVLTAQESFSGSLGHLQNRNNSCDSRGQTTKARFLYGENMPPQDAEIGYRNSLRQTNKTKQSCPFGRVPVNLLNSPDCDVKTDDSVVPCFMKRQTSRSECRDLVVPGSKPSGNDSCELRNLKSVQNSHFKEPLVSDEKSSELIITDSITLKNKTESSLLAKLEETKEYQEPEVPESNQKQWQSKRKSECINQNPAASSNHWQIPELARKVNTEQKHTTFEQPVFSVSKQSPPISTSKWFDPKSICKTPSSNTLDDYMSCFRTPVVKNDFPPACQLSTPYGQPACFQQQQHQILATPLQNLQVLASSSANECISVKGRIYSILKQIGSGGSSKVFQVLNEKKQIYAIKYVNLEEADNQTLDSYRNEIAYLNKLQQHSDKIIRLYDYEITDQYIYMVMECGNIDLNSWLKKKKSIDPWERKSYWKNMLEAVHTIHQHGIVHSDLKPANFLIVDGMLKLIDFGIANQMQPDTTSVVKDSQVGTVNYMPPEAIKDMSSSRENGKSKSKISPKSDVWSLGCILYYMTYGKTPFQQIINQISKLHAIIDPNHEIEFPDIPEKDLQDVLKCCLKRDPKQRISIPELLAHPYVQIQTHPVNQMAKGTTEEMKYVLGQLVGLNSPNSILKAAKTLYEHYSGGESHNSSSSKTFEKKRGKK

[2] = tested on: Breast cancer cells; assay: Cancer cell line growth inhibition (SRB assay); format: cell-based; settings: Homo sapiens; MDA-MB-468; read-out: Cancer Cell Line GI50 Range MDA-MB-468
[3] = tested on: colon cancer cells (HCT116); assay: Cancer cell line growth inhibition (SRB assay); format: cell-based; settings: Homo sapiens, HCT-116; read-out: Cancer Cell Line GI50 Range HCT116
Method: (§1) Breast cancer cells (MDA-MB-231), colon cancer cells (HCT116) and ovarian cancer cells (PA-1) were seeded (1000 to 4000 in 80 μl per well depending on the cell growth rate) into 96 well plates 24 hours before compound overlay. Compounds were prepared as 10 mM stock solutions in 100% DMSO which were diluted with DMEM (Dulbecco's Modified Eagle's Medium) cell growth Medium (Invitrogen, Burlington, ON, Canada) containing 10% FBS (Fetal Bovine Serum) to concentrations ranging from 50 nM to 250 μM. Aliquots (20 μl) from each concentration were overlaid to 80 μl of the pre-seeded cells in the 96 well plates to make final concentrations of 10 nM to 50 μM. The cells were cultured for 5 days before the Sulforhodamine B assay (SRB) was performed to determine the compound's cell growth inhibition activity.
(§2) Sulforhodamine B (purchased from Sigma, Oakville, ON, Canada) is a water-soluble dye that binds to the basic amino acids of the cellular proteins. Thus, colorimetric measurement of the bound dye provides an estimate of the total protein mass that is related to the cell number. the cells are fixed in situ by gently aspirating off the culture media and adding 50 μl ice cold 10% Trichloroacetic Acid (TCA) per well and incubate at 4° C. for 30-60 min. The plates are washed with H2O five times and allowed to air dry for 5 min. Addition of 50 μl 0.4% (w/v) SRB solution in 1% (v/v) acetic acid to each well and incubation for 30 min at RT completes the staining reaction. Following staining, plates are washed four times with 1% acetic acid to remove unbound dye and then allowed to air dry for 5 min. The stain is solubilized with 100 μl of 10 mM Tris pH 10.5 per well. Absorbance is read at 570 nm.
(§3) The percentage (%) of relative growth inhibition was calculated by comparing to DMSO treated only cells (100%). GI50's were determined for compounds with cytotoxic activity. The GI50 was calculated using GraphPad PRISM software (GraphPad Software, Inc., San Diego, Calif., USA).

[4] = tested on: ovarian cancer cells (PA-1); assay: Cancer cell line growth inhibition (SRB assay); format: cell-based; settings: Homo sapiens, PA-1; read-out: Cancer Cell Line GI50 Range PA-1
Method: as §1, §2, §3

[5] = target: T2, human PLK4 (Homo sapiens, UniProt O00444); assay: PLK4 inhibition assay (indirect ELISA); format: biochemical; settings: 15 μM ATP
T2 construct: amino terminal GST fusion of residues 1-391 of human PLK4; made in house; host or cells: E. coli
T2 sequence (O00444 1-391): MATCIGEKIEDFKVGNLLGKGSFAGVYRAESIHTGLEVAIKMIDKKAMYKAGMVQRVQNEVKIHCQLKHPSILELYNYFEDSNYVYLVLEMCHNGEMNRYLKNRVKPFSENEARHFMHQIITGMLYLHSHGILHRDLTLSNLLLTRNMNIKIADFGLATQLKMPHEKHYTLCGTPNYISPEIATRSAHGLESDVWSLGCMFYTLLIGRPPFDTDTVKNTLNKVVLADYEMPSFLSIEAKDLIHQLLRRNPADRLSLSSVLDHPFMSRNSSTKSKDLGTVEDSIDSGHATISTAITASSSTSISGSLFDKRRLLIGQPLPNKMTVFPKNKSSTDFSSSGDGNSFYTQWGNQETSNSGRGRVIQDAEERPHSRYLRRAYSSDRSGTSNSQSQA
Method in brief: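 Dephosphorylated GST-PLK4 (residues 1-391, E. coli; 4 nM) was preincubated 15 min with compound, then reacted 30 min with 15 μM ATP in HEPES pH 7.4, MgCl2, Brij 35 on MBP-coated plates. Phospho-MBP was detected by antibody/HRP ELISA at 450 nm; IC50 from 10-point titration by 4-parameter logistic fit, or single 10 μM % inhibition.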

CN1[C@@H]2CC[C@H]1C[C@@H](Oc1ccc(-c3n[nH]c4ccc(C(=O)NC(c5ccccc5F)C5CC5)cc34)cc1)C2 (stereo partly drawn) [Example A282, N-(cyclopropyl(2-fluorophenyl)methyl)-3-(4-(((1R,3R,5S)-8-methyl-8-azabicyclo[3.2.1]octan-3-yl)oxy)phenyl)-1H-indazole-5-carboxamide]
IC50 [1]: < 100 nM | GI50 [2]: 100 to 500 nM | GI50 [3]: < 100 nM | GI50 [4]: < 100 nM | IC50 [5]: < 50 nM

CC(C)C(NC(=O)c1ccc2[nH]nc(-c3ccc(O[C@H]4C[C@H]5CC[C@@H](C4)N5C)cc3)c2c1)c1ccccc1 (stereo partly drawn) [Example A285, N-(2-methyl-1-phenylpropyl)-3-(4-(((1R,3R,5S)-8-methyl-8-azabicyclo[3.2.1]octan-3-yl)oxy)phenyl)-1H-indazole-5-carboxamide]
IC50 [1]: < 100 nM | GI50 [2]: 100 to 500 nM | GI50 [3]: < 100 nM | GI50 [4]: < 100 nM | IC50 [5]: < 50 nM

O=C(NC(c1ccccc1Cl)C1CCC1)c1ccc2[nH]nc(-c3ccc(N4CCN(C5COC5)CC4)cc3)c2c1 (centres unmarked) [Example A297, N-((2-chlorophenyl)(cyclobutyl)methyl)-3-(4-(4-(oxetan-3-yl)piperazin-1-yl)phenyl)-1H-indazole-5-carboxamide]
IC50 [1]: < 100 nM | GI50 [2]: < 100 nM | GI50 [3]: < 100 nM | GI50 [4]: < 100 nM | IC50 [5]: < 50 nM

C=CCCC(NC(=O)c1ccc2[nH]nc(-c3ccc(N4CCN(C5COC5)CC4)cc3)c2c1)c1ccccc1Cl (centres unmarked) [Example A302, N-(1-(2-chlorophenyl)pent-4-en-1-yl)-3-(4-(4-(oxetan-3-yl)piperazin-1-yl)phenyl)-1H-indazole-5-carboxamide]
IC50 [1]: < 100 nM | GI50 [2]: 100 to 500 nM | GI50 [3]: < 100 nM | GI50 [4]: < 100 nM | IC50 [5]: < 50 nM

CCC(CC)C(NC(=O)c1ccc2[nH]nc(-c3ccc(O[C@H]4C[C@H]5CC[C@@H](C4)N5C=O)cc3)c2c1)c1ccccn1 (stereo partly drawn) [Example A342, N-(2-ethyl-1-(pyridin-2-yl)butyl)-3-(4-(((1R,3R,5S)-8-formyl-8-azabicyclo[3.2.1]octan-3-yl)oxy)phenyl)-1H-indazole-5-carboxamide]
IC50 [1]: < 100 nM | GI50 [2]: < 100 nM | GI50 [3]: < 100 nM | GI50 [4]: < 100 nM | IC50 [5]: < 50 nM

CC(C)CC(NC(=O)c1ccc2[nH]nc(-c3ccc(OC4CCN(C5COC5)CC4)cc3)c2c1)c1ccccc1Cl (centres unmarked) [Example A355, N-(1-(2-chlorophenyl)-3-methylbutyl)-3-(4-((1-(oxetan-3-yl)piperidin-4-yl)oxy)phenyl)-1H-indazole-5-carboxamide]
IC50 [1]: < 100 nM | GI50 [2]: 100 to 500 nM | GI50 [3]: 100 to 500 nM | GI50 [4]: 100 to 500 nM | IC50 [5]: < 50 nM

CC(C)CC(NC(=O)c1ccc2[nH]nc(-c3ccc(OC4CN(C5COC5)C4)cc3)c2c1)c1ccccc1Cl (centres unmarked) [Example A357, N-(1-(2-chlorophenyl)-3-methylbutyl)-3-(4-((1-(oxetan-3-yl)azetidin-3-yl)oxy)phenyl)-1H-indazole-5-carboxamide]
IC50 [1]: < 100 nM | GI50 [2]: 100 to 500 nM | GI50 [3]: 100 to 500 nM | GI50 [4]: 100 to 500 nM | IC50 [5]: < 50 nM

CC(C)C[C@H](NC(=O)c1ccc2[nH]nc(-c3ccc(N4CCN(C5COC5)CC4)cc3)c2c1)c1ccccn1 [Example A359, (S)-N-(3-methyl-1-(pyridin-2-yl)butyl)-3-(4-(4-(oxetan-3-yl)piperazin-1-yl)phenyl)-1H-indazole-5-carboxamide]
IC50 [1]: < 100 nM | GI50 [2]: < 100 nM | GI50 [3]: < 100 nM | GI50 [4]: < 100 nM | IC50 [5]: < 50 nM

CC(C)(C)C[C@H](NC(=O)c1ccc2[nH]nc(-c3ccc(N4CCN(C5COC5)CC4)cc3)c2c1)c1ccccc1 [Example A372, (S)-N-(3,3-dimethyl-1-phenylbutyl)-3-(4-(4-(oxctan-3-yl)piperazin-1-yl)phenyl)-1H-indazole-5-carboxamide]
IC50 [1]: < 100 nM | GI50 [2]: 100 to 500 nM | GI50 [3]: < 100 nM | GI50 [4]: < 100 nM | IC50 [5]: < 50 nM

CC(C)CC(NC(=O)c1ccc2[nH]nc(-c3ccc(OC4CC5CCC(C4)N5C4COC4)cc3)c2c1)c1ccccn1 [Example A373, N-(3-methyl-1-(pyridin-2-yl)butyl)-3-(4-(((1R,3R,5S)-8-(oxetan-3-yl)-8-azabicyclo[3.2.1]octan-3-yl)oxy)phenyl)-1H-indazole-5-carboxamide]
IC50 [1]: < 100 nM | GI50 [2]: 100 to 500 nM | GI50 [3]: 100 to 500 nM | GI50 [4]: 100 to 500 nM | IC50 [5]: < 50 nM

CN1C2COCC1CC(Oc1ccc(-c3n[nH]c4ccc(C(=O)NC(c5ccccc5)C5CC5)cc34)cc1)C2 [Example A387, N-(cyclopropyl(phenyl)methyl)-3-(4-(((1R,5S,7s)-9-methyl-3-oxa-9-azabicyclo[3.3.1]nonan-7-yl)oxy)phenyl)-1H-indazole-5-carboxamide]
IC50 [1]: < 100 nM | GI50 [2]: > 500 nM | GI50 [3]: < 100 nM | GI50 [4]: < 100 nM | IC50 [5]: < 50 nM

CN1[C@@H]2CCC[C@H]1C[C@@H](Oc1ccc(-c3n[nH]c4ccc(C(=O)NC(c5ccccc5)C5CC5)cc34)cc1)C2 (stereo partly drawn) [Example A390, N-(cyclopropyl (phenyl)methyl)-3-(4-(((1R,3R,5S)-9-methyl-9-azabicyclo[3.3.1]nonan-3-yl)oxy)phenyl)-1 H-indazole-5-carboxamide]
IC50 [1]: < 100 nM | GI50 [2]: 100 to 500 nM | GI50 [3]: < 100 nM | GI50 [4]: < 100 nM | IC50 [5]: < 50 nM

O=C(N[C@H](CCO)c1ccccc1)c1ccc2[nH]nc(-c3ccc(N4[C@@H]5CC[C@H]4COC5)cc3)c2c1 [Example A423, 3-(4-((1R,5S)-3-oxa-8-azabicyclo[3.2.1]octan-8-yl)phenyl)-N-((R)-3-hydroxy-1-phenylpropyl)-1H-indazole-5-carboxamide]
IC50 [1]: < 100 nM | GI50 [2]: < 100 nM | GI50 [3]: < 100 nM | GI50 [4]: < 100 nM | IC50 [5]: < 50 nM

CC(C)C[C@H](NC(=O)c1ccc2[nH]nc(-c3ccc(N4C5COCC4CC(O)C5)cc3)c2c1)c1ccccc1Cl (stereo partly drawn) [Example A424, N-((S)-1-(2-chlorophenyl)-3-methylbutyl)-3-(4-((1R,5S,7R)-7-hydroxy-3-oxa-9-azabicyclo[3.3.1]nonan-9-yl)phenyl)-1H-indazole-5-carboxamide]
IC50 [1]: < 100 nM | GI50 [2]: < 100 nM | GI50 [3]: < 100 nM | GI50 [4]: < 100 nM | IC50 [5]: < 50 nM

CN1[C@@H]2CC[C@H]1C[C@@H](Oc1ccc(-c3n[nH]c4ccc(C(=O)NCC5(c6cccs6)CCOCC5)cc34)cc1)C2 [Example A445, 3-(4-(((1R,3R,5S)-8-methyl-8-azabicyclo[3.2.1]octan-3-yl)oxy)phenyl)-N-((4-(thiophen-2-yl)tetrahydro-2H-pyran-4-yl)methyl)-1H-indazole-5-carboxamide]
IC50 [1]: < 100 nM | GI50 [2]: 100 to 500 nM | GI50 [3]: < 100 nM | GI50 [4]: < 100 nM | IC50 [5]: < 50 nM

O=C(NCC1(c2ccccc2)COC1)c1ccc2[nH]nc(-c3ccc(OC4CCN(C5COC5)CC4)cc3)c2c1 [Example A487, 3-(4-((1-(oxetan-3-yl)piperidin-4-yl)oxy)phenyl)-N-((3-phenyloxetan-3-yl)methyl)-1H-indazole-5-carboxamide]
IC50 [1]: < 100 nM | GI50 [2]: > 500 nM | GI50 [3]: > 500 nM | GI50 [4]: > 500 nM | IC50 [5]: < 50 nM
